Conditions: Liquid, Closed cell (Static) method

COC [dimethyl ether]
Conditions | vapor or sublimation pressure [kPa]
296.78 K | 571.9
303.46 K | 690.2
308.54 K | 793.1
312.26 K | 875.3
317.17 K | 993.3
322.08 K | 1122
327.08 K | 1265.6
332.09 K | 1423.5
337 K | 1591.1
341.97 K | 1773.8
347 K | 1976.2
351.89 K | 2187.4
356.91 K | 2422.2
361.94 K | 2675.2
366.96 K | 2946.3
371.84 K | 3230.3
376.91 K | 3546.4
379.82 K | 3739
382.88 K | 3950.3
385.83 K | 4161.9
387.81 K | 4309.6
389.81 K | 4463.7
391.86 K | 4625.6
393.81 K | 4783
395.74 K | 4943.6

FC(F)(F)C(F)(F)C(F)(F)C(F)(F)F [decafluorobutane]
Conditions | vapor or sublimation pressure [kPa]
263.15 K | 72.7
268.12 K | 89.6
273.09 K | 109.4
278 K | 132.4
282.99 K | 159
287.91 K | 189.3
292.97 K | 225.4
297.95 K | 265.3
302.9 K | 310.2
308.21 K | 364.3
312.88 K | 417.8
317.88 K | 481.2
323.22 K | 556.4
328.15 K | 633.7
332.91 K | 716.1
337.93 K | 811
342.91 K | 913
347.93 K | 1025.8
352.92 K | 1149.2
357.1 K | 1261.3
363.13 K | 1437.8
368.03 K | 1594.1
373.25 K | 1775.9
376.88 K | 1912.1
379.05 K | 1997.7

From the NIST ThermoML archive (doi:10.1016/j.fluid.2011.11.026)
